Measurements as given in patent EP0927045B1, “TUMOR HOMING MOLECULES, […] THEREFROM, AND METHODS OF USING SAME” (The Burnham Institute, priority 1996, dated 1998).
Where two headings read alike, the source gives them in different places. Where no end group is shown, it is not given here.

How the values were obtained:
[1] = tested on: MDA-MB-435 breast carcinoma; experiment: Tumor therapy with doxorubicin/peptide conjugates in tumor bearing mice; format: in vivo, Balb c nu/nu mice; details: for effect on tumor growth: relative to treatment with the vehicle, alone
Description: Female 2-month old Balb c nu/nu mice (Harlan Sprague Dawley; San Diego CA) were used for these studies and were cared for according to the Burnham Institute animal facility guidelines. […] Tumors were allowed to grow to a size of about 1 cm^3 (about 5% of the mouse's body weight) before starting the treatment experiments, except for the toxicity experiments as discussed below.
Weekly doxorubicin/peptide conjugate or control treatments (5 µg/mouse/week of doxorubicin-equivalent) were administered intravenously. In some experiments, as indicated, a dose of 30 µg/mouse was administered every 3 weeks. Treatment with doxorubicin, alone, is referred to as "dox control" and treatment with doxorubicin conjugated to the non-tumor homing control peptide, […] As an additional control, in some experiments the tumor homing peptide was mixed with doxorubicin, without linking, and the mixture was administered to tumor bearing mice. Such treatment produced results that were not statistically different from those obtained with the above described dox controls.
Mice were anesthetized with a tribromoethanol-based anesthetic mixture (AVERTIN; Papaioannou and Fox, Lab. Anim. 43:189-192 (1993)) before each treatment. Anesthetization facilitated the tail vein injections (final volume, 200 µl) and allowed precise serial three dimensional tumor size measurements. Tumor volume calculations were based on the equation for the volume of an ovaloid: V=4/3(nabc), where a, b, and c are 1/2 of the measured diameters in each of the three dimensions.

[2] = tested on: MDA-MB-435 human breast carcinoma cells; experiment: In vitro characterization of cytotoxicity, crystal violet staining; format: cell-based
Description: (§1) (SEQ ID NO: 1) conjugate, or the doxorubicin/[sequence] (SEQ ID NO: 19; control) conjugate (0.1 to 10 µg/well of doxorubicin-equivalent) for either 30 min or overnight. Following incubation, the agents were removed by extensive washing with PBS, then fresh medium added and incubation was continued. The number of surviving cells was determined at 24 hours with crystal violet staining (see Koivunen et al., supra, 1994).

[3] = Acute toxicity in mice bearing extremely large tumors; format: in vivo; details: 200 µg/mouse; tumors about 25% of body weight
Description: Acute toxicity studies also were performed.

human Kaposi's sarcoma = experiment: In vivo targeting of phage to a tumor; set-up: species or system mice; details: human Kaposi's sarcoma xenograft
Description: Since the αvβ3 integrin is expressed by endothelial cells in angiogenic vasculature, experiments were performed to determine whether tumor vasculature that is undergoing angiogenesis can be targeted in vivo using methods as disclosed herein. Phage expressing the peptide, […] (SEQ ID NO: 1; see, Koivunen et al., supra, 1995), which is known to bind to the αvβ3 integrin, were injected into mice bearing tumors formed from human breast carcinoma cells, mouse melanoma cells or human Kaposi's sarcoma cells (see Example IV). The […] […] For example, in mice bearing tumors formed by implantation of human breast carcinoma cells, a twenty-to eighty-fold greater number of the […] (SEQ ID NO: 1) phage, as compared to unselected control phage, accumulated in the tumor.

[4] = tested on: Human 435 breast carcinoma; experiment: In vivo targeting of phage to a tumor, phage in organs quantitated; set-up: species or system nude mice
Description: When the tumors attained a diameter of about 1 cm, phage expressing a specific RGD-containing peptide were administered to the tumor bearing mouse. Similar results TABLE 1
1 x 10^9 phage expressing the RGD-containing peptide, […] (SEQ ID NO: 1; see, Koivunen et al., supra, 1995) or control (insertless) phage were injected intravenously (iv) into the mice and allowed to circulate for 4 min. The mice then were snap frozen or perfused through the heart while under anesthesia, and various organs, including tumor, brain and kidney, were removed and the phage present in the organs was quantitated (see U.S. Patent No. 5,622,699; Pasqualini and Ruoslahti, supra, 1996).

[5] = tested on: MDA-MB-435 human breast carcinoma cells; format: cell-based; details: for cell killing: agents not removed after 30 min, after 24 hr
Description: as §1

breast tumor = experiment: Viability of tumor cells plated from tumors of treated mice; format: in vivo; details: 30 pg equivalent iv, tumors removed five days after treatment, cell numbers 24 hours and 7 days after plating
Source text: In addition, the viability of tumor cells obtained from tumors of mice treated with a tumor homing peptide/doxorubicin conjugate was compared to that of tumors from mice treated with free doxorubicin. In these experiments, breast tumor bearing mice were size matched with regard to the tumors, then treated intravenously with 30 pg equivalent of doxorubicin/[…] (SEQ ID NO: 1) or of free doxorubicin. Five days after treatment, the mice were euthanized and the tumors were removed. The tumor pairs were weighed and ground and the cell suspensions were plated (2 g tumor tissue per 150 mm plate).
Cell numbers were determined at 24 hours and 7 days after plating. Viability of tumor cells from the tumors of mice receiving the doxorubicin/[…] (SEQ ID NO: 1) conjugate was about 3 fold less than cells from tumors of mice treated with the free doxorubicin.

[6] = Acute toxicity in mice bearing extremely large tumors; format: in vivo; details: 200 µg/mouse; tumors about 25% of body weight; remark: listed apart in the source
Description: Acute toxicity studies also were performed. […] (SEQ ID NO: 1) conjugate. All of the mice treated with the doxorubicin/[…]

[7] = exposure 30 min, then agents removed, 0.1 to 10 µg/well doxorubicin-equivalent, surviving cells at 24 hours
[8] = 5 µg/mouse/week doxorubicin-equivalent
[9] = 5 µg/mouse/week doxorubicin-equivalent iv
[10] = 5 µg/mouse/week doxorubicin-equivalent iv, at necropsy, t test p<0.0001

In the case of `COc1cccc2c1C(=O)c1c(O)c3c(c(O)c1C2=O)C[C@@](O)(C(=O)CO)C[C@@H]3O[C@H]1C[C@H](N)[C@H](O)[C@H](C)O1` [doxorubicin], the “gross examination: skin ulceration and tumor necrosis” value (shortened to “gross examination”) ([1]; 5 µg/mouse/week doxorubicin equivalent) is reported as “no such signs were observed”, the “effect on tumor growth” value [1] is reported as “essentially no effect on tumor growth” and the cell killing ([2]; agents not removed after 30 min, after 24 hr) is reported as “killed”. The cell death [2, 7] was “cell death was present only in the cultures treated with the doxorubicin/CDCRGDCFC” and the “time to death after treatment” value [3] was no more than 48 h.

In the case of CLSGSLSC, the “selective homing of phage to the tumor” value (human Kaposi's sarcoma) is reported as “also homed” and the “selective homing of phage to the tumor” value [4] is reported as “also homed”.

With “doxorubicin/CDCRGDCFC: CDCRGDCFC (SEQ ID NO: 1) coupled to doxorubicin using EDC and NHS (cysteine pairing not given here; also: doxorubicin coupled via EDC/NHS)” the “gross examination” value [1, 8] was “marked skin ulceration and tumor necrosis”, the “survival compared with dox control and conjugate control” value [1, 9] was “survived beyond the time when the dox control and conjugate control mice had died” and the “tumor size compared with controls” value [1, 9] was “significantly smaller tumors”. The “pulmonary metastasis compared with dox control” value [1, 10] was “a lower incidence of pulmonary metastasis and fewer metastatic lesions”, the “spread to regional lymph nodes compared with dox control” value [1, 10] was “less spread to regional lymph nodes” and the “time alive after the dox control and conjugate control mice had died” value ([1]; dose escalation: 30 µg/mouse every three weeks for three cycles) was “more than 6 months”. For the same compound, the “histopathological analysis of tumor vasculature compared with dox control” value ([1]; mouse, in vivo) was “pronounced destruction of the vasculature”, the cell killing [5] was “killed” and the cell death [5, 7] was “cell death was present”. For the same compound, the “viability of tumor cells relative to cells from tumors of mice treated with free doxorubicin” value (breast tumor) was “about 3 fold less” and the survival after treatment [6] was “survived for longer than one week”.

In the case of “doxorubicin/GACVFSIAHECGA: doxorubicin conjugated to the non-tumor homing control peptide, GACVFSIAHECGA (SEQ ID NO: 19) (cysteine pairing not given here; also: doxorubicin conjugated) [reference compound]”, the “gross examination” value [1, 8] is reported as “no such signs were observed”, the “treatment results compared with dox control” value [1, 9] is reported as “not significantly different” and the “effect on tumor growth” value [1] is reported as “essentially no effect on tumor growth”. For the same compound, the cell death [5] was “cell death was present only in the cultures treated with the doxorubicin/[…]” and the cell killing [5] was “killed”.
